From patent US8962596B2 (Array BioPharma Inc., priority 2010, dated 2015)

Tests used:
Type in all cases: biochemical
JAK1 = biological target: T1, JAK1 (Homo sapiens, UniProt P23458); test: JAK1 Inhibition Assay (Omnia kinase fluorescence peptide substrate assay); conditions: averaged IC50 ranges; assay of Example B; 40 μM (Km app) or 1 mM ATP, 15 nM JAK1
T1 construct: purchased Invitrogen Corporation, Carlsbad, Calif; PV4775
Source text: (§1) The assays described in Examples A, B, C and D for the determination of Tyk2, JAK1, JAK2 and JAK3 kinase activity, respectively, utilized the Omnia® Kinase fluorescence peptide substrate-based technology (Invitrogen). The specific components of the assay mixture are described in Examples A, B, C and D. In these assays, Mg^2+ is chelated upon phosphorylation of the Omnia peptide by the kinase to form a bridge between the chelation-enhanced fluorophore Sox and the phosphate, resulting in an increase in fluorescence emission at 485 nm when excited at […]. The reactions were therefore read at excitation 360 nm and emission was measured at 485 nm every 50 seconds for 45 minutes using a PerkinElmer EnVision Multilabel Plate Reader.
(§2) The final buffer conditions for Tyk2, JAK1, JAK2, and JAK3 assays were as follows: 25 mM HEPES, pH 7.4, 10 mM MgCl2, 0.01% Triton X-100 and 1 mM DTT.
(§3) Compounds were prepared at 50× the final concentration in DMSO by conducting 3-fold serial dilutions from a 500-μM intermediate dilution to give a 10-point dosing curve having a high dose of 10 μM. Two-μL aliquots of these were transferred to a fresh plate for a ten-fold intermediate dilution with assay buffer. Five-μL aliquots of the diluted compounds were then transferred to 20-μL of assay mixtures described in Examples A, B, C and D for a final concentration of DMSO of 2%. A standard or reference compound was typically included on each assay plate to validate that plate. For each plate, percent of control (POC) values were calculated for each well according to the following equation:
(§4) where Xmax=Average Uninhibited Controls • Xmin=Average Background IC50's were estimated from the POC's using a standard 4-parameter logistic model:
(§5) where • A=Minimum Y (Bottom Asymptote) • B=Maximum Y (Top Asymptote) • C=EC50 • D=Slope Factor • X=Compound Concentration (nM) • Y=POC
(§6) The IC50 is defined as the concentration of inhibitor at which the POC equals 50 for the fitted curve.
Compounds of Formula I were screened for their ability to inhibit JAK1 using the general enzyme inhibition assay method, in which the assay mixture contained 40 μM (Km app) or 1 mM ATP, 8 μM Omnia® Y12 peptide (Catalog #IVGN KPZ3121C; Invitrogen Corporation, Carlsbad, Calif.) and 15 nM JAK1 in a total volume of 20 μL. JAK1 was purchased from Invitrogen Corporation, Carlsbad, Calif. (catalog #IVGN PV4775).

Human Tyk2 kinase domain = biological target: T2, Human Tyk2 kinase domain (Homo sapiens, UniProt P29597); test: Tyk2 Inhibition Assay (Omnia kinase fluorescence peptide substrate assay); conditions: averaged IC50 ranges; assay of Example A; 10 μM (Km app) or 1 mM ATP, 2 nM Tyk2
T2 construct: comprising amino acids 886 to 1187 with 10 additional histidine residues; 10xHis (histidine tag) (C, cleaved yes); made in house
T2 sequence (P29597 886-1187): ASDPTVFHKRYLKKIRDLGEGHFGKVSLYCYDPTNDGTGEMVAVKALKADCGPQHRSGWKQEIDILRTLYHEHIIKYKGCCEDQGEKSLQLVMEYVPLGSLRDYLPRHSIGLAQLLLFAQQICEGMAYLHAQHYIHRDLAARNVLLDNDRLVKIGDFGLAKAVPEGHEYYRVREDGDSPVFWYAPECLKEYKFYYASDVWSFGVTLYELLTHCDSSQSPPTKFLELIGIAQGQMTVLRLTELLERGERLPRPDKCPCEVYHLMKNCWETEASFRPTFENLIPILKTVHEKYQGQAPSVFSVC
Source text: as §1, §2, §3, §4, §5, §6
Compounds of Formula I were screened for their ability to inhibit Tyk2 using the general enzyme inhibition assay method, in which the assay mixture contained 10 μM (Km app) or 1 mM ATP, 8 μM Omnia® Y12 peptide (Catalog #IVGN KPZ3121C; Invitrogen Corporation, Carlsbad, Calif.) and 2 nM Tyk2 in a total volume of 20 μL. Human Tyk2 kinase domain, comprising amino acids 886 to 1187 with 10 additional histidine residues (histidine tag) on the carboxy terminus, was expressed and purified from bacculovirus in-house at Array BioPharma Inc. (Boulder, Colo.). The histidine tag was cleaved after purification using standard conditions.

JAK2 = biological target: T3, JAK2 (Homo sapiens, UniProt O60674); test: JAK2 Inhibition Assay (Omnia kinase fluorescence peptide substrate assay); conditions: averaged IC50 ranges; assay of Example C; 25 μM (Km app) or 1 mM ATP, 5 nM JAK2
T3 construct: purchased Invitrogen Corporation, Carlsbad, Calif; PV4288
Source text: as §1, §2, §3, §4, §5, §6
(§7) Compounds of Formula I were screened for their ability to inhibit JAK2 using the general enzyme inhibition assay method, in which the assay mixture contained 25 μM (Km app) or 1 mM ATP, 10 μM Omnia® Y7 peptide (Catalog #IVGN KNZ3071C, Invitrogen Corporation, Carlsbad, Calif.) and 5 nM JAK2 in a total volume of 20 μL. JAK2 was purchased from Invitrogen Corporation, Carlsbad, Calif. (catalog #IVGN PV4288).

JAK3 = biological target: T4, JAK3 (Homo sapiens, UniProt P52333); test: JAK3 Inhibition Assay (Omnia kinase fluorescence peptide substrate assay); conditions: averaged IC50 ranges; assay of Example D; 10 μM (Km app) or 1 mM ATP, 2.5 nM JAK3
T4 construct: purchased Invitrogen Corporation, Carlsbad, Calif; PV4080
T4 sequence (P52333 1-1124): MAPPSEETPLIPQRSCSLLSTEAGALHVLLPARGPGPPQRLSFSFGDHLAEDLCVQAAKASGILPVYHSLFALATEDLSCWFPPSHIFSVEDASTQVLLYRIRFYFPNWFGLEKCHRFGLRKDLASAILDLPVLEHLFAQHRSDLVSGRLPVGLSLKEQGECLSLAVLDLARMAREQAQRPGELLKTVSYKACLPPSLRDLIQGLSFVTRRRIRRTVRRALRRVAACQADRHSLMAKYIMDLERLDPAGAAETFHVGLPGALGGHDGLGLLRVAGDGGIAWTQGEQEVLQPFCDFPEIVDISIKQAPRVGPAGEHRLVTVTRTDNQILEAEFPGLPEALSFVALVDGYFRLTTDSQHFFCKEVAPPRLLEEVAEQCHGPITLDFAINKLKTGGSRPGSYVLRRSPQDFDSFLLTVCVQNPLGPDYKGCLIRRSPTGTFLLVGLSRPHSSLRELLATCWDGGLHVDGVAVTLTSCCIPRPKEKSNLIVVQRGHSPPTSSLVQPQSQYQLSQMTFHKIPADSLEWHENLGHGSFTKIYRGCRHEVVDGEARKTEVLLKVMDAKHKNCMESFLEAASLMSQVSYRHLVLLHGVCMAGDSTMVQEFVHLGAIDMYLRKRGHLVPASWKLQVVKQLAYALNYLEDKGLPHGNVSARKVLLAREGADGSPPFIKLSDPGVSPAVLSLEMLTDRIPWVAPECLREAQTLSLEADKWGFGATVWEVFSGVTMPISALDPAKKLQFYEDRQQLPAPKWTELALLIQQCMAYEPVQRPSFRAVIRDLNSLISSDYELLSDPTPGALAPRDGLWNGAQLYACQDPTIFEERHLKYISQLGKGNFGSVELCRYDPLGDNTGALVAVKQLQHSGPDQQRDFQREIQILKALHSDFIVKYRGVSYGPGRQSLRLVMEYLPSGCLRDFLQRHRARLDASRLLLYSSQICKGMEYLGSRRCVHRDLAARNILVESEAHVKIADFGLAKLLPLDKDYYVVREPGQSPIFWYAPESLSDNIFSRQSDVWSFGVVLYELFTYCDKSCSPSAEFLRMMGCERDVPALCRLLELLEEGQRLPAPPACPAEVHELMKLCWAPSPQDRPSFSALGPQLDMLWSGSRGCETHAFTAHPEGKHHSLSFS
Source text: as §1, §2, §3, §4, §5, §6
as §7, with “JAK3” for “JAK2”, “10” for “25”, “2.5” for “5”, “PV4080).” for “PV4288).”

T1 sequence (P23458 whole entry): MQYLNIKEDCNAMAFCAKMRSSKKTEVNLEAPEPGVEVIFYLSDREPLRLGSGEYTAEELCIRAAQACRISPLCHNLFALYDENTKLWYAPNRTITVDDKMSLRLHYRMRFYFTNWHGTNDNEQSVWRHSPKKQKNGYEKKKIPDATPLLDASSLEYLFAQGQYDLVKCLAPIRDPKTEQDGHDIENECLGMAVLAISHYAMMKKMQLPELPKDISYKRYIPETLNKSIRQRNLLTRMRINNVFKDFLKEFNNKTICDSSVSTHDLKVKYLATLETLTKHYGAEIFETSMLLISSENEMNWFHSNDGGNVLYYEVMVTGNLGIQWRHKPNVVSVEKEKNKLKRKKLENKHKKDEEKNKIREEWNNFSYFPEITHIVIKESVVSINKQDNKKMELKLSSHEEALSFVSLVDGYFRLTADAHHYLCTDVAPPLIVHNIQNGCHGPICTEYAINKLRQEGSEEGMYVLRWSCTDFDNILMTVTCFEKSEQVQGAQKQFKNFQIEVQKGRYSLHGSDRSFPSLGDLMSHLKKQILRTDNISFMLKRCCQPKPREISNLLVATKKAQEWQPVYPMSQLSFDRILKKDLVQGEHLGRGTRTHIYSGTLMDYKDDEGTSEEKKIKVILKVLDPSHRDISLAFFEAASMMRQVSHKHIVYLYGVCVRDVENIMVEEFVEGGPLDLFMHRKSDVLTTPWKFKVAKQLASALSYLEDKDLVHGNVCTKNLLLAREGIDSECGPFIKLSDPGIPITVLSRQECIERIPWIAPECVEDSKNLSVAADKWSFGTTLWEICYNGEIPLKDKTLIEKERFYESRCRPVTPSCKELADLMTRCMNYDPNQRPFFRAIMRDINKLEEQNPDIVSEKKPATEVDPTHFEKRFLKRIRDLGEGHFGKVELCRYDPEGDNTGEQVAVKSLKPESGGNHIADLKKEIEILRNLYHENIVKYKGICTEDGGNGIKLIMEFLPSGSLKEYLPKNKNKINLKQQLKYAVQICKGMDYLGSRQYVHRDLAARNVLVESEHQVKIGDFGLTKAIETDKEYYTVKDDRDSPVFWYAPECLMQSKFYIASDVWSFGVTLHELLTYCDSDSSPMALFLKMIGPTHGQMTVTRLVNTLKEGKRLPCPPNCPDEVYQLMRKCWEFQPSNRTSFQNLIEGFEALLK
T3 sequence (O60674 whole entry): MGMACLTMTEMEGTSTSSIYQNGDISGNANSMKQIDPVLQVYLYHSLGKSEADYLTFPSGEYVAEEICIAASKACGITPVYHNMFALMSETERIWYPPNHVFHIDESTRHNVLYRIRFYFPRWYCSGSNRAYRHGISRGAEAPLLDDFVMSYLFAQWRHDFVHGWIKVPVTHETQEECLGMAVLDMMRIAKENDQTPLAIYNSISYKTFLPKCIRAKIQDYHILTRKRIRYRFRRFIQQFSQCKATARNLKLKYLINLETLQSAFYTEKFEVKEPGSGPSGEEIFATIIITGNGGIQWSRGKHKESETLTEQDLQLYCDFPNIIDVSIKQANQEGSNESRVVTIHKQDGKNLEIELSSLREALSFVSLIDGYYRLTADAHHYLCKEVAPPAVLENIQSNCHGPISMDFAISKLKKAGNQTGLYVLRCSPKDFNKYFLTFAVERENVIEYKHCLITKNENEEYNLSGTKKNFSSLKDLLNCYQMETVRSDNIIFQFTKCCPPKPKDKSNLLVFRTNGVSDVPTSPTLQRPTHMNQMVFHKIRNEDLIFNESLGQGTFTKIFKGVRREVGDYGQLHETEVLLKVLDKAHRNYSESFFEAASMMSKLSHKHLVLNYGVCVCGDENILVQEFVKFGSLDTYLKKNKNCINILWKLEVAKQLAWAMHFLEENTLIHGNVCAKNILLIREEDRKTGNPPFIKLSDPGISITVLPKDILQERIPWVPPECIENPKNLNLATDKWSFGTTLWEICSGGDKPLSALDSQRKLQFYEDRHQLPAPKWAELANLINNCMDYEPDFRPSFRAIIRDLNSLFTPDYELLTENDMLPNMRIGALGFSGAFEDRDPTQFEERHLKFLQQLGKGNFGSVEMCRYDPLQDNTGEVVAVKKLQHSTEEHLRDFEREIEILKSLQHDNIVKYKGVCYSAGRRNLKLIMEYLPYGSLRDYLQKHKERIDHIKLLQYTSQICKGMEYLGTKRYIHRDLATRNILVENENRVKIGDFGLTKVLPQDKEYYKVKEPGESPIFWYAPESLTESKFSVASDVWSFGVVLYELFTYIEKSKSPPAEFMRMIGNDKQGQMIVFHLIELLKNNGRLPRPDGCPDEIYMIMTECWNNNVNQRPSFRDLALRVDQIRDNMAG

| SMILES | IC50 (JAK1) | IC50 (Human Tyk2 kinase domain) | IC50 (JAK2) | IC50 (JAK3) |
| --- | --- | --- | --- | --- |
| Cn1cc(-c2cc3nccn3c(-c3cnn(C4(CC#N)CN(CC(F)(F)F)C4)c3)n2)cn1 [Example 71, 2-(3-(4-(7-(1-methyl-1H-pyrazol-4-yl)imidazo[1,2-c]pyrimidin-5-yl)-1H-pyrazol-1-yl)-1-(2,2,2-trifluoroethyl)azetidin-3-yl)acetonitrile] | 0.1 to 1 µM | < 0.01 µM | 0.01 to 0.1 µM | > 1 µM |
| N#CCC(C1CC1)n1cc(-c2nc(-c3cn[nH]c3)cc3nccn23)cn1 (centres unmarked) [Example 33, 3-(4-(7-(1H-pyrazol-4-yl)imidazo[1,2-c]pyrimidin-5-yl)-1H-pyrazol-1-yl)-3-cyclopropylpropanenitrile] | 0.1 to 1 µM | 0.01 to 0.1 µM | 0.1 to 1 µM | > 1 µM |
| N#CCC1(n2cc(-c3nc(-c4cnn(C5COC5)c4)cc4nccn34)cn2)CN(CC(F)(F)C(F)(F)F)C1 [Example 157, 2-(3-(4-(7-(1-(oxetan-3-yl)-1H-pyrazol-4-yl)imidazo[1,2-c]pyrimidin-5-yl)-1H-pyrazol-1-yl)-1-(2,2,3,3,3-pentafluoropropyl)azetidin-3-yl)acetonitrile] | 0.1 to 1 µM | 0.01 to 0.1 µM | 0.01 to 0.1 µM | > 1 µM |
| Cn1cc(-c2cc3nccn3c(-c3cnn(C4(CC#N)CCN(S(=O)(=O)C(F)(F)F)C4)c3)n2)cn1 (centres unmarked) [Example 133, 2-(3-(4-(7-(1-methyl-1H-pyrazol-4-yl)imidazo[1,2-c]pyrimidin-5-yl)-1H-pyrazol-1-yl)-1-(trifluoromethylsulfonyl)pyrrolidin-3-yl)acetonitrile] | 0.01 to 0.1 µM | < 0.01 µM | 0.01 to 0.1 µM | 0.1 to 1 µM |
| Cn1cc(-c2cc3nccn3c(-c3cnn(C4(CC#N)CN(CCCF)C4)c3)n2)cn1 [Example 74, 2-(1-(3-fluoropropyl)-3-(4-(7-(1-methyl-1H-pyrazol-4-yl)imidazo[1,2-c]pyrimidin-5-yl)-1H-pyrazol-1-yl)azetidin-3-yl)acetonitrile] | 0.1 to 1 µM | < 0.01 µM | 0.1 to 1 µM | > 1 µM |
| Cn1cc(-c2cc3nccn3c(-c3cnn(C(CC#N)c4cccc(Cl)c4)c3)n2)cn1 (centres unmarked) [Example 13, 3-(3-chlorophenyl)-3-(4-(7-(1-methyl-1H-pyrazol-4-yl)imidazo[1,2-c]pyrimidin-5-yl)-1H-pyrazol-1-yl)propanenitrile] | 0.01 to 0.1 µM | < 0.01 µM | < 0.01 µM | 0.1 to 1 µM |
| N#CCC(C1CCCC1)n1cc(-c2nc(-c3ccc(N4CCOCC4)cc3)cc3nccn23)cn1 (single isomer, unassigned) [Example 114, 3-cyclopentyl-3-(4-(7-(4-morpholinophenyl)imidazo[1,2-c]pyrimidin-5-yl)-1H-pyrazol-1-yl)propanenitrile] | 0.1 to 1 µM | < 0.01 µM | 0.01 to 0.1 µM | 0.1 to 1 µM |
| N#CCC(C1CCCC1)n1cc(-c2nc(-c3ccc(N4CCOCC4)cc3)cc3nccn23)cn1 (single isomer, unassigned) [Example 115, 3-cyclopentyl-3-(4-(7-(4-morpholinophenyl)imidazo[1,2-c]pyrimidin-5-yl)-1H-pyrazol-1-yl)propanenitrile] | < 0.01 µM | < 0.01 µM | < 0.01 µM | 0.1 to 1 µM |
| Cn1cc(-c2cc3nccn3c(-c3cnn(C4(CC#N)CN(S(=O)(=O)C(F)(F)F)C4)c3)n2)cn1 [Example 96, 2-(3-(4-(7-(1-Methyl-1H-pyrazol-4-yl)imidazo[1,2-c]pyrimidin-5-yl)-1H-pyrazol-1-yl)-1-(trifluoromethylsulfonyl)azetidin-3-yl)acetonitrile] | < 0.01 µM | < 0.01 µM | < 0.01 µM | 0.1 to 1 µM |
| N#CCC(C1CC1)n1cc(-c2nc(-c3cnn(C4CCC4)c3)cc3nccn23)cn1 (centres unmarked) [Example 42, 3-(4-(7-(1-cyclobutyl-1H-pyrazol-4-yl)imidazo[1,2-c]pyrimidin-5-yl)-1H-pyrazol-1-yl)-3-cyclopropylpropanenitrile] | 0.01 to 0.1 µM | < 0.01 µM | 0.01 to 0.1 µM | 0.1 to 1 µM |
| CC#CCN1CC(CC#N)(n2cc(-c3nc(-c4cnn(C)c4)cc4nccn34)cn2)C1 [Example 75, 2-(1-(but-2-ynyl)-3-(4-(7-(1-methyl-1H-pyrazol-4-yl)imidazo[1,2-c]pyrimidin-5-yl)-1H-pyrdzol-1-yl)azetidin-3-yl)acetonitrile] | > 1 µM | 0.1 to 1 µM | > 1 µM | > 1 µM |
